Publication PMC11277489, “Novel Piperazine Derivatives of Vindoline as Anticancer Agents” (International Journal of Molecular Sciences, 2024)

Assays:
[1] = system: LOX IMVI; test: NCI60 one-dose screen (10 μM), Melanoma; type: cell-based, human; details: Homo sapiens; 10 μM; LOX IMVI, Melanoma; read-out: Growth percent rate
[2] = system: SK-MEL-2; test: NCI60 one-dose screen (10 μM), Melanoma; type: cell-based; details: Homo sapiens; 10 μM; SK-MEL-2, Melanoma; read-out: Growth percent rate
[3] = system: NCI-H23; test: NCI60 one-dose screen (10 μM), Non-small Cell Lung Cancer; type: cell-based; details: Homo sapiens; 10 μM; NCI-H23, Non-small Cell Lung Cancer; read-out: Growth percent rate
[4] = system: A498; test: NCI60 one-dose screen (10 μM), Renal Cancer; type: cell-based; details: Homo sapiens; 10 μM; A498, Renal Cancer; read-out: Growth percent rate
[5] = system: NCI-H322M; test: NCI60 one-dose screen (10 μM), Non-small Cell Lung Cancer; type: cell-based; details: Homo sapiens, 10 μM, Non-small Cell Lung Cancer, read-out: Growth percent rate
[6] = system: HS 578T; test: NCI60 one-dose screen (10 μM), Breast Cancer; type: cell-based; details: Homo sapiens; 10 μM; HS 578T, Breast Cancer; read-out: Growth percent rate
[7] = system: MDA-MB-435; test: NCI60 one-dose screen (10 μM), Melanoma; type: cell-based; details: Homo sapiens; 10 μM; MDA-MB-435, Melanoma; read-out: Growth percent rate
[8] = system: KM12; test: NCI60 one-dose screen (10 μM), Colon Cancer; type: cell-based, human; details: Homo sapiens; 10 μM; KM12, Colon Cancer; read-out: Growth percent rate
[9] = system: ACHN; test: NCI60 one-dose screen (10 μM), Renal Cancer; type: cell-based; details: Homo sapiens, 10 μM, Renal Cancer, read-out: Growth percent rate
[10] = system: TK-10; test: NCI60 one-dose screen (10 μM), Renal Cancer; type: cell-based; details: Homo sapiens; 10 μM; TK-10, Renal Cancer; read-out: Growth percent rate
[11] = system: SF-295; test: NCI60 one-dose screen (10 μM), CNS Cancer; type: cell-based; details: Homo sapiens; 10 μM; SF-295, CNS Cancer; read-out: Growth percent rate
[12] = system: NCI-H522; test: NCI60 one-dose screen (10 μM), Non-small Cell Lung Cancer; type: cell-based; details: Homo sapiens; 10 μM; NCI-H522, Non-small Cell Lung Cancer; read-out: Growth percent rate
[13] = system: MOLT-4; test: NCI60 one-dose screen (10 μM), Leukemia; type: cell-based, human; details: Homo sapiens; 10 μM; MOLT-4, Leukemia; read-out: Growth percent rate
[14] = system: SW-620; test: NCI60 one-dose screen (10 μM), Colon Cancer; type: cell-based; details: Homo sapiens; 10 μM; SW-620, Colon Cancer; read-out: Growth percent rate
[15] = system: RXF 393; test: NCI60 one-dose screen (10 μM), Renal Cancer; type: cell-based, human; details: Homo sapiens; 10 μM; RXF 393, Renal Cancer; read-out: Growth percent rate
[16] = system: HL-60(TB); test: NCI60 one-dose screen (10 μM), Leukemia; type: cell-based; details: Homo sapiens; 10 μM; HL-60(TB), Leukemia; read-out: Growth percent rate
[17] = system: U251; test: NCI60 one-dose screen (10 μM), CNS Cancer; type: cell-based; details: Homo sapiens, U-251; 10 μM; U251, CNS Cancer; read-out: Growth percent rate
[18] = system: RPMI-8226; test: NCI60 one-dose screen (10 μM), Leukemia; type: cell-based; details: Homo sapiens; 10 μM; RPMI-8226, Leukemia; read-out: Growth percent rate
[19] = system: 60 human tumor cell lines (NCI60); test: NCI60 one-dose screen (10 μM), whole panel; type: cell-based; details: 10 μM; mean over 60 human cancer cell lines; read-out: Growth percent rate, Mean
[20] = system: K-562; test: NCI60 one-dose screen (10 μM), Leukemia; type: cell-based; details: Homo sapiens, K562; 10 μM; K-562, Leukemia; read-out: Growth percent rate
[21] = system: HCT-116; test: NCI60 one-dose screen (10 μM), Colon Cancer; type: cell-based; details: Homo sapiens; 10 μM; HCT-116, Colon Cancer; read-out: Growth percent rate
[22] = system: CCRF-CEM; test: NCI60 one-dose screen (10 μM), Leukemia; type: cell-based; details: Homo sapiens, 10 μM, Leukemia, read-out: Growth percent rate
[23] = system: 786–0; test: NCI60 one-dose screen (10 μM), Renal Cancer; type: cell-based; details: Homo sapiens; 10 μM; 786-0, Renal Cancer; read-out: Growth percent rate
[24] = system: COLO 205; test: NCI60 one-dose screen (10 μM), Colon Cancer; type: cell-based, human; details: Homo sapiens; 10 μM; COLO 205, Colon Cancer; read-out: Growth percent rate
[25] = system: OVCAR-3; test: NCI60 one-dose screen (10 μM), Ovarian Cancer; type: cell-based; details: Homo sapiens; 10 μM; OVCAR-3, Ovarian Cancer; read-out: Growth percent rate
[26] = system: NCI-H460; test: NCI60 one-dose screen (10 μM), Non-small Cell Lung Cancer; type: cell-based; details: Homo sapiens; 10 μM; NCI-H460, Non-small Cell Lung Cancer; read-out: Growth percent rate
[27] = system: HOP-62; test: as above; type: cell-based; details: Homo sapiens; 10 μM; HOP-62, Non-small Cell Lung Cancer; read-out: Growth percent rate
[28] = system: HCT-15; test: NCI60 one-dose screen (10 μM), Colon Cancer; type: cell-based; details: Homo sapiens; 10 μM; HCT-15, Colon Cancer; read-out: Growth percent rate
[29] = system: MCF7; test: NCI60 one-dose screen (10 μM), Breast Cancer; type: cell-based; details: Homo sapiens; 10 μM; MCF7, Breast Cancer; read-out: Growth percent rate
[30] = system: SN12C; test: NCI60 one-dose screen (10 μM), Renal Cancer; type: cell-based; details: Homo sapiens, 10 μM, Renal Cancer, read-out: Growth percent rate
[31] = system: EKVX; test: NCI60 one-dose screen (10 μM), Non-small Cell Lung Cancer; type: cell-based; details: Homo sapiens, 10 μM, Non-small Cell Lung Cancer, read-out: Growth percent rate
[32] = system: SNB-75; test: NCI60 one-dose screen (10 μM), CNS Cancer; type: cell-based, human; details: Homo sapiens; 10 μM; SNB-75, CNS Cancer; read-out: Growth percent rate
[33] = system: IGROV1; test: NCI60 one-dose screen (10 μM), Ovarian Cancer; type: cell-based; details: Homo sapiens, IGROV-1; 10 μM; IGROV1, Ovarian Cancer; read-out: Growth percent rate
[34] = system: OVCAR-4; test: NCI60 one-dose screen (10 μM), Ovarian Cancer; type: cell-based; details: Homo sapiens; 10 μM; OVCAR-4, Ovarian Cancer; read-out: Growth percent rate
[35] = system: SF-539; test: NCI60 one-dose screen (10 μM), CNS Cancer; type: cell-based, human; details: Homo sapiens; 10 μM; SF-539, CNS Cancer; read-out: Growth percent rate
[36] = system: SK-MEL-28; test: NCI60 one-dose screen (10 μM), Melanoma; type: cell-based; details: Homo sapiens; 10 μM; SK-MEL-28, Melanoma; read-out: Growth percent rate
[37] = system: SF-268; test: NCI60 one-dose screen (10 μM), CNS Cancer; type: cell-based; details: Homo sapiens; 10 μM; SF-268, CNS Cancer; read-out: Growth percent rate
[38] = system: UACC-257; test: NCI60 one-dose screen (10 μM), Melanoma; type: cell-based; details: Homo sapiens; 10 μM; UACC-257, Melanoma; read-out: Growth percent rate
[39] = system: A549/ATCC; test: NCI60 one-dose screen (10 μM), Non-small Cell Lung Cancer; type: cell-based; details: Homo sapiens; 10 μM; A549/ATCC, Non-small Cell Lung Cancer; read-out: Growth percent rate
[40] = system: CAKI-1; test: NCI60 one-dose screen (10 μM), Renal Cancer; type: cell-based; details: Homo sapiens; 10 μM; CAKI-1, Renal Cancer; read-out: Growth percent rate
[41] = system: OVCAR-8; test: NCI60 one-dose screen (10 μM), Ovarian Cancer; type: cell-based; details: Homo sapiens; 10 μM; OVCAR-8, Ovarian Cancer; read-out: Growth percent rate
[42] = system: MALME-3M; test: NCI60 one-dose screen (10 μM), Melanoma; type: cell-based; details: Homo sapiens; 10 μM; MALME-3M, Melanoma; read-out: Growth percent rate

With `CC[C@]12C=CCN3CC[C@@]4(c5ccc(OC)cc5N(C)[C@H]4[C@@](O)(C(=O)OC)[C@@H]1OC(=O)CCC(=O)N1CCN(Cc4ccc(F)cc4)CC1)[C@@H]32` [Compound 30] the activity at 10 µM [1] was 71.8%, the activity at 10 µM [2] was 90.2% and the activity at 10 µM [3] was 83.4%. For the same compound, the activity at 10 µM [4] was 110%, the activity at 10 µM [5] was 97.2% and the activity at 10 µM [6] was 78.5%. For the same compound, the activity at 10 µM [7] was 85.7%, the activity at 10 µM [8] was 83.6% and the activity at 10 µM [9] was 71.3%. For the same compound, the activity at 10 µM [10] was 60.6%, the activity at 10 µM [11] was 67.9% and the activity at 10 µM [12] was 59.7%. For the same compound, the activity at 10 µM [13] was 59.4%, the activity at 10 µM [14] was 102% and the activity at 10 µM [15] was 60.1%. For the same compound, the activity at 10 µM [16] was 82.2%, the activity at 10 µM [17] was 71.6% and the activity at 10 µM [18] was 46.3%. The activity at 10 µM [19] was 71.4%, the activity at 10 µM [20] was 65.2% and the activity at 10 µM [21] was 67.8%. For the same compound, the activity at 10 µM [22] was 61.4%, the activity at 10 µM [23] was 84.2% and the activity at 10 µM [24] was 66.7%. The activity at 10 µM [25] was 63.7%, the activity at 10 µM [26] was 83.4% and the activity at 10 µM [27] was 88.4%. It also gave an activity at 10 µM [28] of 79.5%, an activity at 10 µM [29] of 62.2% and an activity at 10 µM [30] of 71.2%. The activity at 10 µM [31] was 60.2%, the activity at 10 µM [32] was 64.5% and the activity at 10 µM [33] was 68.4%. For the same compound, the activity at 10 µM [34] was 56.4%, the activity at 10 µM [35] was 78.7% and the activity at 10 µM [36] was 104%. It also gave an activity at 10 µM [37] of 50.8%, an activity at 10 µM [38] of 86% and an activity at 10 µM [39] of 55.4%. For the same compound, the activity at 10 µM [40] was 28.1%, the activity at 10 µM [41] was 73.7% and the activity at 10 µM [42] was 93.3%.

`CCC12C=CCN3CCC4(c5ccc(OC)cc5N(C)C4C(O)(C(=O)OC)C1OC(=O)CCCN1CCN(C)CC1)C32` (stereo not drawn) [Compound 3] gave an activity at 10 µM [1] of 84%, an activity at 10 µM [2] of 84.7% and an activity at 10 µM [3] of 90%. It also gave an activity at 10 µM [4] of 83.2%, an activity at 10 µM [5] of 96.9% and an activity at 10 µM [6] of 78.6%. The activity at 10 µM [7] was 28.9%, the activity at 10 µM [8] was 85.3% and the activity at 10 µM [9] was 103%. The activity at 10 µM [10] was 99%, the activity at 10 µM [11] was 96.2% and the activity at 10 µM [12] was 45.9%. It also gave an activity at 10 µM [13] of 102%, an activity at 10 µM [14] of 87% and an activity at 10 µM [15] of 73%. It also gave an activity at 10 µM [16] of 91%, an activity at 10 µM [17] of 89.9% and an activity at 10 µM [18] of 112%. The activity at 10 µM [19] was 87.8%, the activity at 10 µM [20] was 66.9% and the activity at 10 µM [21] was 112%. It also gave an activity at 10 µM [22] of 108%, an activity at 10 µM [23] of 106% and an activity at 10 µM [24] of 90%. The activity at 10 µM [25] was 78.1%, the activity at 10 µM [26] was 97.7% and the activity at 10 µM [27] was 79.9%. It also gave an activity at 10 µM [28] of 91.3%, an activity at 10 µM [29] of 78% and an activity at 10 µM [30] of 89.1%. For the same compound, the activity at 10 µM [31] was 96.5%, the activity at 10 µM [32] was 85.3% and the activity at 10 µM [33] was 102%. For the same compound, the activity at 10 µM [34] was 101%, the activity at 10 µM [35] was 88.1% and the activity at 10 µM [36] was 85%. It also gave an activity at 10 µM [37] of 90.8%, an activity at 10 µM [38] of 90.1% and an activity at 10 µM [39] of 98.2%. For the same compound, the activity at 10 µM [40] was 54.5%, the activity at 10 µM [41] was 92.9% and the activity at 10 µM [42] was 77.2%.
